Source: patent US5140044A, “UCN-1028D derivatives” (Kyowa Hakko Kogyo Co., Ltd., priority 1989, dated 1992)
≈ marks a conversion by molar mass, not a printed value.

What was measured:
[1] = target: Protein Kinase C; experiment: Protein kinase C inhibitory activity (method of Kikkawa et al.; crude enzyme from rat brain, Histone Type II S phosphorylation); format: biochemical; details: crude enzyme partially purified from rat brain; [γ-32P]ATP, 30° C., 3 minutes, pH 7.5
Procedure: Protein kinase C inhibitory activity
The protein kinase C inhibitory activity was measured by the method of Kikkawa, et al. [Journal of Biological Chemistry, 257, 13341 (1982)].
That is, 10 μl of a test solution containing a UCN-1028D derivative was added to 250 μl of a solution containing 2.5 μmoles of magnesium acetate, 50 μg of Histone Type II S (manufactured by Sigma Co., Ltd.), 20 μg of phosphatidyl serine, 0.8 μg of diolein, 25 nmoles of CaCl2, 5 μg of crude enzyme (partially purified from rat brain according to the method of Kikkawa, et al.) and 5 μmoles of Tris-hydrochloride buffer (pH 7.5), followed by incubation at 30° C. for 3 minutes. Then, phosphorylation was initiated by addition of 1.25 nmoles of [γ-^32 P]ATP (5 to 10×10^3 cpm/nmole), followed by incubation at 30° C. for 3 minutes The reaction was stopped by adding 25% trichloroacetic acid (TCA), and the reaction solution was filtered through a cellulose acetate membrane (pore size: 0.45 μm) (manufactured by Toyo Filter Paper Co., Ltd.). After the membrane was washed four times with 5% TCA, radioactivity remaining on the membrane was measured. As a control, the same procedure as above was repeated without addition of the test solution and radioactivity was likewise measured. The concentration of the test solution showing 50% inhibition as compared with the control was expressed as IC50.

[2] = system: BALB 3T3/H-ras; experiment: Anti-tumor activity: growth inhibition of BALB 3T3 cells transformed with H-ras (Giemsa staining); format: cell-based; details: Mus musculus, BALB/3T3, 72 h, read-out: IC50 BALB 3T3/H-ras Inhibitory Activity
Procedure: The anti-tumor activity was determined using BALB 3T3 cells transformed with the carcinogenic gene H-ras (hereafter referred to as BALB 3T3/H-ras).
BALB 3T3/H-ras cells were suspended in a medium comprising DME medium (manufactured by Nissui Pharmaceutical Co., Ltd.) and 10% fetal calf serum (hereafter referred to as medium A) to a concentration of 3.0×10^4 /cells ml. The cell suspension thus prepared was put into wells of a 96-well microtiter plate in an amount of 0.1 ml per well. After culturing at 37° C. for 20 hours in a CO2 -incubator, 0.1 ml each of a test solution appropriately diluted with medium A was added to each well. The cells were further cultured at 37° C. for 72 hours in the CO2 -incubator and the culture supernatant was removed. After being washed once with physiological saline, the residue was treated with 0.1 ml of methanol for 10 minutes to fix the cells. Thereafter, the cells were stained with 0.1 ml of Giemsa staining solution [Giemsa staining stock solution (Merck Art 9204; manufactured by Merck Inc.) : physiological saline=1 : 10] for 5 minutes. After the staining solution was removed, the residue was washed once with 0.2 ml of water. The pigment was extracted with 0.2 ml of 0.1 N hydrochloric acid and the absorbance at 620 nm was measured with a microplate reader. By comparing the absorbance of untreated cells with those of the cells treated with the test compound at known concentrations, the concentration of the test compound at which the growth of the cells is inhibited by 50% (IC50) was calculated.

Structure (SMILES)	IC50 Protein Kinase C Inhibitory Activity [1]	IC50 [2]
COc1c(C[C@@H](C)OC(C)=O)c2c3c(C[C@@H](C)OC(C)=O)c(OC)c(=O)c4c(O)cc(OC)c(c5c(OC)cc(O)c(c1=O)c52)c43 [Compound 1, 14,17-di-O-acetyl UCN-1028D]	1.6 µg/mL (≈ 2.52 µM)	0.048 µg/mL (≈ 0.0756 µM)
CCCC(=O)O[C@H](C)Cc1c(OC)c(=O)c2c(O)cc(OC)c3c4c(OC)cc(O)c5c(=O)c(OC)c(C[C@@H](C)OC(=O)CCC)c(c1c23)c54 [Compound 2, 14,17-di-O-butyryl UCN-1028D]	0.14 µg/mL (≈ 0.203 µM)	0.023 µg/mL (≈ 0.0333 µM)
CCCCCC(=O)O[C@H](C)Cc1c(OC)c(=O)c2c(O)cc(OC)c3c4c(OC)cc(O)c5c(=O)c(OC)c(C[C@@H](C)OC(=O)CCCCC)c(c1c23)c54 [Compound 3, 14,17-di-O-hexanoyl UCN-1028D]	0.035 µg/mL (≈ 0.0469 µM)	0.12 µg/mL (≈ 0.161 µM)
CCCCCCC(=O)O[C@H](C)Cc1c(OC)c(=O)c2c(O)cc(OC)c3c4c(OC)cc(O)c5c(=O)c(OC)c(C[C@@H](C)OC(=O)CCCCCC)c(c1c23)c54 [Compound 4, 14,17-di-O-heptanoyl UCN-1028D]	0.03 µg/mL (≈ 0.0387 µM)	0.52 µg/mL (≈ 0.671 µM)
CCCCCCCCCC(=O)O[C@H](C)Cc1c(OC)c(=O)c2c(O)cc(OC)c3c4c(OC)cc(O)c5c(=O)c(OC)c(C[C@@H](C)OC(=O)CCCCCCCCC)c(c1c23)c54 [Compound 5, 14,17-di-O-decanoyl UCN-1028D]	0.068 µg/mL (≈ 0.0792 µM)	7 µg/mL (≈ 8.15 µM)
CCCCCCCCCCCC(=O)O[C@H](C)Cc1c(OC)c(=O)c2c(O)cc(OC)c3c4c(OC)cc(O)c5c(=O)c(OC)c(C[C@@H](C)OC(=O)CCCCCCCCCCC)c(c1c23)c54 [Compound 6, 14,17-di-O-dodecanoyl UCN-1028D]	0.15 µg/mL (≈ 0.164 µM)	4.8 µg/mL (≈ 5.24 µM)
C=CCCC(=O)O[C@H](C)Cc1c(OC)c(=O)c2c(O)cc(OC)c3c4c(OC)cc(O)c5c(=O)c(OC)c(C[C@@H](C)OC(=O)CCC=C)c(c1c23)c54 [Compound 7, 14,17-di-O-pentenoyl UCN-1028D]	0.06 µg/mL (≈ 0.0839 µM)	0.17 µg/mL (≈ 0.238 µM)
COc1c(C[C@@H](C)OC(=O)C2CCCCC2)c2c3c(C[C@@H](C)OC(=O)C4CCCCC4)c(OC)c(=O)c4c(O)cc(OC)c(c5c(OC)cc(O)c(c1=O)c52)c43 [Compound 8, 14,17-di-O-cyclohexanecarbonyl UCN-1028D]	0.017 µg/mL (≈ 0.0221 µM)	0.56 µg/mL (≈ 0.726 µM)
COc1c(C[C@@H](C)OC(=O)Cc2ccccc2)c2c3c(C[C@@H](C)OC(=O)Cc4ccccc4)c(OC)c(=O)c4c(O)cc(OC)c(c5c(OC)cc(O)c(c1=O)c52)c43 [Compound 9, 14,17-bis-O-phenylacetyl UCN-1028D]	0.054 µg/mL (≈ 0.0686 µM)	0.11 µg/mL (≈ 0.14 µM)
COc1c(C[C@@H](C)OC(=O)CCc2ccccc2)c2c3c(C[C@@H](C)OC(=O)CCc4ccccc4)c(OC)c(=O)c4c(O)cc(OC)c(c5c(OC)cc(O)c(c1=O)c52)c43 [Compound 10, 14,17-bis-O-3-phenylpropionyl UCN-1028D]	0.045 µg/mL (≈ 0.0552 µM)	0.95 µg/mL (≈ 1.17 µM)
COc1c(C[C@@H](C)OC(=O)CCCc2ccccc2)c2c3c(C[C@@H](C)OC(=O)CCCc4ccccc4)c(OC)c(=O)c4c(O)cc(OC)c(c5c(OC)cc(O)c(c1=O)c52)c43 [Compound 11, 14,17-bis-O-4-phenylbutyryl UCN-1028D]	0.035 µg/mL (≈ 0.0415 µM)	2.6 µg/mL (≈ 3.08 µM)
COc1c(C[C@@H](C)OC(=O)Cc2cccc3ccccc23)c2c3c(C[C@@H](C)OC(=O)Cc4cccc5ccccc45)c(OC)c(=O)c4c(O)cc(OC)c(c5c(OC)cc(O)c(c1=O)c52)c43 [Compound 12, 14,17-bis-O-1-naphthylacetyl UCN-1028D]	0.05 µg/mL (≈ 0.0564 µM)	1.3 µg/mL (≈ 1.47 µM)
COc1c(C[C@@H](C)OC(=O)COc2ccccc2)c2c3c(C[C@@H](C)OC(=O)COc4ccccc4)c(OC)c(=O)c4c(O)cc(OC)c(c5c(OC)cc(O)c(c1=O)c52)c43 [Compound 13, 14,17-bis-O-phenyloxyacetyl UCN-1028D]	0.08 µg/mL (≈ 0.0977 µM)	0.03 µg/mL (≈ 0.0366 µM)
COc1c(C[C@@H](C)OC(=O)[C@@H](N)CC(C)C)c2c3c(C[C@@H](C)OC(=O)[C@@H](N)CC(C)C)c(OC)c(=O)c4c(O)cc(OC)c(c5c(OC)cc(O)c(c1=O)c52)c43 [Compound 14, 14,17-di-O-L-leucyl UCN-1028D bistrifluoroacetate]	0.21 µg/mL (≈ 0.27 µM)	0.45 µg/mL (≈ 0.579 µM)
CC[C@H](C)[C@H](N)C(=O)O[C@H](C)Cc1c(OC)c(=O)c2c(O)cc(OC)c3c4c(OC)cc(O)c5c(=O)c(OC)c(C[C@@H](C)OC(=O)[C@@H](N)[C@@H](C)CC)c(c1c23)c54 [Compound 15, 14,17-di-O-L-isoleucyl UCN-1028D bistrifluoroacetate]	0.15 µg/mL (≈ 0.193 µM)	0.28 µg/mL (≈ 0.36 µM)
COc1c(C[C@@H](C)OC(=O)[C@H](N)c2ccccc2)c2c3c(C[C@@H](C)OC(=O)[C@H](N)c4ccccc4)c(OC)c(=O)c4c(O)cc(OC)c(c5c(OC)cc(O)c(c1=O)c52)c43 [Compound 16, 14,17-di-O-D-phenylglycyl UCN-1028D bistrifluoroacetate]	0.17 µg/mL (≈ 0.208 µM)	0.72 µg/mL (≈ 0.881 µM)
COc1c(C[C@@H](C)OC(=O)[C@@H](N)Cc2ccccc2)c2c3c(C[C@@H](C)OC(=O)[C@@H](N)Cc4ccccc4)c(OC)c(=O)c4c(O)cc(OC)c(c5c(OC)cc(O)c(c1=O)c52)c43 [Compound 17, 14,17-di-O-L-phenylalanyl UCN-1028D bistrifluoroacetate]	0.088 µg/mL (≈ 0.104 µM)	0.35 µg/mL (≈ 0.414 µM)
COc1c(C[C@@H](C)OC(=O)[C@H](N)Cc2ccccc2)c2c3c(C[C@@H](C)OC(=O)[C@H](N)Cc4ccccc4)c(OC)c(=O)c4c(O)cc(OC)c(c5c(OC)cc(O)c(c1=O)c52)c43 [Compound 18, 14,17-di-O-D-phenylalanyl UCN-1028D bistrifluoroacetate]	0.16 µg/mL (≈ 0.189 µM)	0.84 µg/mL (≈ 0.994 µM)
CN[C@@H](Cc1ccccc1)C(=O)O[C@H](C)Cc1c(OC)c(=O)c2c(O)cc(OC)c3c4c(OC)cc(O)c5c(=O)c(OC)c(C[C@@H](C)OC(=O)[C@H](Cc6ccccc6)NC)c(c1c23)c54 [Compound 19, 14,17-bis-O-N-methyl-L-phenylalanyl UCN-1028D bistrifluoroacetate]	0.1 µg/mL (≈ 0.115 µM)	0.35 µg/mL (≈ 0.401 µM)
COc1c(C[C@@H](C)OC(=O)[C@@H]2CCCN2)c2c3c(C[C@@H](C)OC(=O)[C@@H]4CCCN4)c(OC)c(=O)c4c(O)cc(OC)c(c5c(OC)cc(O)c(c1=O)c52)c43 [Compound 20, 14,17-di-O-L-prolyl UCN-1028D bistrifluoroacetate]	0.33 µg/mL (≈ 0.443 µM)	3.2 µg/mL (≈ 4.3 µM)
COc1c(C[C@@H](C)OC(=O)CCCCCN)c2c3c(C[C@@H](C)OC(=O)CCCCCN)c(OC)c(=O)c4c(O)cc(OC)c(c5c(OC)cc(O)c(c1=O)c52)c43 [Compound 21, 14,17-bis-O-6-aminohexanoyl UCN-1028D bis-trifluoroacetate]	0.08 µg/mL (≈ 0.103 µM)	2.5 µg/mL (≈ 3.22 µM)
COc1c(C[C@@H](C)OC(=O)c2ccc(OC(C)=O)cc2)c2c3c(C[C@@H](C)OC(=O)c4ccc(OC(C)=O)cc4)c(OC)c(=O)c4c(O)cc(OC)c(c5c(OC)cc(O)c(c1=O)c52)c43 [Compound 24, 14,17-bis-O-p-acetoxybenzoyl UCN-1028D]	0.082 µg/mL (≈ 0.0937 µM)	0.048 µg/mL (≈ 0.0549 µM)
COc1c(C[C@@H](C)OC(=O)c2ccc(C#N)cc2)c2c3c(C[C@@H](C)OC(=O)c4ccc(C#N)cc4)c(OC)c(=O)c4c(O)cc(OC)c(c5c(OC)cc(O)c(c1=O)c52)c43 [Compound 25, 14,17-bis-O-p-cyanobenzoyl UCN-1028D]	0.05 µg/mL (≈ 0.0618 µM)	0.042 µg/mL (≈ 0.0519 µM)
COc1c(C[C@@H](C)OC(=O)c2ccc(O)cc2)c2c3c(C[C@@H](C)OC(=O)c4ccc(O)cc4)c(OC)c(=O)c4c(O)cc(OC)c(c5c(OC)cc(O)c(c1=O)c52)c43 [Compound 26, 14,17-bis-O-p-hydroxybenzoyl UCN-1028D]	0.084 µg/mL (≈ 0.106 µM)	0.13 µg/mL (≈ 0.164 µM)
